Data reported in the NIST ThermoML archive (doi:10.1016/j.fluid.2014.01.013).
± gives the expanded uncertainty stated by the source.

Conditions: 298.15 K; 101.33 kPa; Liquid; Vibrating tube method

Row | SMILES | mass density [kg/m3]
1 | CCCCCCCCCCCC [dodecane] | 741.54 ± 0.58
2 | CCCCCCCCCCCCCC [tetradecane] | 759.27 ± 0.24
3 | O=Cc1ccccc1 [benzaldehyde] | 1042.94 ± 0.26
4 | CCCCCCCCCC [decane] | 726.43 ± 0.25
5 | CCCCCCCCCCCCCCCC [hexadecane] | 770.21 ± 0.24
